Experimental data as given in ChEMBL document CHEMBL1136032, “Remarkable influence of the aromatic substructure in 9-methoxystrobilurin derivatives on their antifungal activity” (Bioorg Med Chem Lett, 2002).
Activity calls are given as the source filed them. No cut-off for these calls is given here.

System: Aspergillus fumigatus
Assay: Compound was tested for the antifungal activity against Aspergillus fumigatus (R-1301) at a concentration of 10 ug/disk; zone of inhibition was measured after 48 hr incubation.
Assay type: functional
Details: not given

| Molecule | Diameter of inhibition zone [mm] |
| --- | --- |
| CO\C=C(C(=O)OC)/C(C)=C(\C=C\c1ccc(OC)c(OC)c1)OC | 20 |
| CO\C=C(C(=O)OC)/C(C)=C(\C=C\c1ccc2c(c1)OCO2)OC | 22 |
| CO\C=C(C(=O)OC)/C(C)=C(\C=C\c1cccc(OC)c1)OC | 23 |

System: Aspergillus fumigatus
Assay: Compound was tested for the antifungal activity against Aspergillus fumigatus (R-1301) at a concentration of 0.1 ug/disk; zone of inhibition was measured after 48 hr incubation; NE denotes not effective
Assay type: functional, organism-based
Details: not given

| Molecule | Diameter of inhibition zone |
| --- | --- |
| CO\C=C(C(=O)OC)/C(C)=C(\C=C\c1cccc2ccccc12)OC | inactive |
| CO\C=C(C(=O)OC)/C(C)=C(\C=C\c1ccc(OC)c(OC)c1)OC | inactive |
| CO\C=C(C(=O)OC)/C(C)=C(\C=C\c1ccc2c(c1)OCO2)OC | inactive |
| CO\C=C(C(=O)OC)/C(C)=C(\C=C\c1cccc(OC)c1)OC | inactive |

System: Aspergillus fumigatus
Assay: Compound was tested for the antifungal activity against Aspergillus fumigatus (R-1301) at a concentration of 10 ug/disk; zone of inhibition was measured after 48 hr incubation
Assay type: functional
Details: not given

| Molecule | Diameter of inhibition zone [mm] |
| --- | --- |
| CO\C=C(C(=O)OC)/C(C)=C(\C=C\c1cccc2ccccc12)OC | 14 |

System: Aspergillus fumigatus
Assay: Compound was tested for the antifungal activity against Aspergillus fumigatus (R-1301) at a concentration of 1 ug/disk; zone of inhibition was measured after 48 hr incubation.
Assay type: functional
Details: not given

| Molecule | Diameter of inhibition zone [mm] |
| --- | --- |
| CO\C=C(C(=O)OC)/C(C)=C(\C=C\c1cccc2ccccc12)OC | 10 |
| CO\C=C(C(=O)OC)/C(C)=C(\C=C\c1cccc(OC)c1)OC | 9 |

System: Aspergillus fumigatus
Assay: Compound was tested for the antifungal activity against Aspergillus fumigatus (R-1301) at a concentration of 1 ug/disk; zone of inhibition was measured after 48 hr incubation; +/- denotes slightly effective
Assay type: functional, organism-based
Details: not given

| Molecule | Diameter of inhibition zone |
| --- | --- |
| CO\C=C(C(=O)OC)/C(C)=C(\C=C\c1ccc(OC)c(OC)c1)OC | Weak activity |
| CO\C=C(C(=O)OC)/C(C)=C(\C=C\c1ccc2c(c1)OCO2)OC | Weak activity |

System: Candida albicans
Assay: Compound was tested for the antifungal activity against Candida albicans (IFO1594) at a concentration of 1 ug/disk; zone of inhibition was measured after 48 h incubation; incomplete inhibition observed
Assay type: functional
Details: not given

| Molecule | Diameter of inhibition zone [mm] |
| --- | --- |
| CO\C=C(C(=O)OC)/C(C)=C(\C=C\c1ccc(OC)c(OC)c1)OC | 26 |
| CO\C=C(C(=O)OC)/C(C)=C(\C=C\c1ccc2c(c1)OCO2)OC | 22 |
| CO\C=C(C(=O)OC)/C(C)=C(\C=C\c1cccc(OC)c1)OC | 27 |

System: Candida albicans
Assay: Compound was tested for the antifungal activity against Candida albicans (IFO1594) at a concentration of 0.1 ug/disk; zone of inhibition was measured after 48 hr incubation; +/- denotes slightly effective
Assay type: functional, organism-based
Details: not given

| Molecule | Diameter of inhibition zone |
| --- | --- |
| CO\C=C(C(=O)OC)/C(C)=C(\C=C\c1ccc(OC)c(OC)c1)OC | Weak activity |
| CO\C=C(C(=O)OC)/C(C)=C(\C=C\c1ccc2c(c1)OCO2)OC | Weak activity |
| CO\C=C(C(=O)OC)/C(C)=C(\C=C\c1cccc(OC)c1)OC | Weak activity |

System: Candida albicans
Assay: Compound was tested for the antifungal activity against Candida albicans (IFO1594) at a concentration of 0.1 ug/disk; zone of inhibition was measured after 48 h incubation; NE denotes not effective
Assay type: functional, organism-based
Details: not given

| Molecule | Diameter of inhibition zone |
| --- | --- |
| CO\C=C(C(=O)OC)/C(C)=C(\C=C\c1cccc2ccccc12)OC | inactive |

System: Candida albicans
Assay: Compound was tested for the antifungal activity against Candida albicans (IFO1594) at a concentration of 10 ug/disk; zone of inhibition was measured after 48 hr incubation.
Assay type: functional
Details: not given

| Molecule | Diameter of inhibition zone [mm] |
| --- | --- |
| CO\C=C(C(=O)OC)/C(C)=C(\C=C\c1cccc2ccccc12)OC | 15 |

System: Candida albicans
Assay: Compound was tested for the antifungal activity against Candida albicans (IFO1594) at a concentration of 10 ug/disk; zone of inhibition was measured after 48 hr incubation; incomplete inhibition observed
Assay type: functional
Details: not given

| Molecule | Diameter of inhibition zone [mm] |
| --- | --- |
| CO\C=C(C(=O)OC)/C(C)=C(\C=C\c1ccc(OC)c(OC)c1)OC | 34 |
| CO\C=C(C(=O)OC)/C(C)=C(\C=C\c1ccc2c(c1)OCO2)OC | 32 |
| CO\C=C(C(=O)OC)/C(C)=C(\C=C\c1cccc(OC)c1)OC | 32 |

System: Candida albicans
Assay: Compound was tested for the antifungal activity against Candida albicans (IFO1594) at a concentration of 1 ug/disk; zone of inhibition was measured after 48 hr incubation
Assay type: functional
Details: not given

| Molecule | Diameter of inhibition zone [mm] |
| --- | --- |
| CO\C=C(C(=O)OC)/C(C)=C(\C=C\c1cccc2ccccc12)OC | 5 |

System: Fusarium solani
Assay: Compound was tested for the antifungal activity against Fusarium solani (R-2800) at a concentration of 0.1 ug/disk; zone of inhibition was measured after 48 hr incubation; NE denotes not effective
Assay type: functional, organism-based
Details: not given

| Molecule | Diameter of inhibition zone |
| --- | --- |
| CO\C=C(C(=O)OC)/C(C)=C(\C=C\c1cccc2ccccc12)OC | inactive |
| CO\C=C(C(=O)OC)/C(C)=C(\C=C\c1ccc(OC)c(OC)c1)OC | inactive |
| CO\C=C(C(=O)OC)/C(C)=C(\C=C\c1ccc2c(c1)OCO2)OC | inactive |
| CO\C=C(C(=O)OC)/C(C)=C(\C=C\c1cccc(OC)c1)OC | inactive |

System: Fusarium solani
Assay: Compound was tested for the antifungal activity against Fusarium solani (R-2800) at a concentration of 10 ug/disk; zone of inhibition was measured after 48 hr incubation; NE denotes not effective
Assay type: functional, organism-based
Details: not given

| Molecule | Diameter of inhibition zone |
| --- | --- |
| CO\C=C(C(=O)OC)/C(C)=C(\C=C\c1cccc2ccccc12)OC | inactive |
| CO\C=C(C(=O)OC)/C(C)=C(\C=C\c1ccc(OC)c(OC)c1)OC | inactive |
| CO\C=C(C(=O)OC)/C(C)=C(\C=C\c1ccc2c(c1)OCO2)OC | inactive |
| CO\C=C(C(=O)OC)/C(C)=C(\C=C\c1cccc(OC)c1)OC | inactive |

System: Fusarium solani
Assay: Compound was tested for the antifungal activity against Fusarium solani (R-2800) at a concentration of 1 ug/disk; zone of inhibition was measured after 48 hr incubation; NE denotes not effective
Assay type: functional, organism-based
Details: not given

| Molecule | Diameter of inhibition zone |
| --- | --- |
| CO\C=C(C(=O)OC)/C(C)=C(\C=C\c1cccc2ccccc12)OC | inactive |
| CO\C=C(C(=O)OC)/C(C)=C(\C=C\c1ccc(OC)c(OC)c1)OC | inactive |
| CO\C=C(C(=O)OC)/C(C)=C(\C=C\c1ccc2c(c1)OCO2)OC | inactive |
| CO\C=C(C(=O)OC)/C(C)=C(\C=C\c1cccc(OC)c1)OC | inactive |

System: MRC5
Assay: Cytotoxicity against human diploid embryotic cell line (MRC-5)
Assay type: functional, cell-based
Details: Homo sapiens, MRC5

| Molecule | IC50 [µM] |
| --- | --- |
| CO\C=C(C(=O)OC)/C(C)=C(\C=C\c1cccc2ccccc12)OC | > 100 |
| CO\C=C(C(=O)OC)/C(C)=C(\C=C\c1ccc(OC)c(OC)c1)OC | 12 |
| CO\C=C(C(=O)OC)/C(C)=C(\C=C\c1ccc2c(c1)OCO2)OC | > 100 |
| CO\C=C(C(=O)OC)/C(C)=C(\C=C\c1cccc(OC)c1)OC | 27 |

Same assay, conditions: mrc5

| Molecule | IC50 [µM] |
| --- | --- |
| NYSTATIN | 34 |

System: Penicillium citrinum
Assay: Compound was tested for the antifungal activity against Penicillium citrinum (R-3703) at a concentration of 0.1 ug/disk; zone of inhibition was measured after 48 hr incubation; +/- denotes slightly effective
Assay type: functional, organism-based
Details: not given

| Molecule | Diameter of inhibition zone |
| --- | --- |
| CO\C=C(C(=O)OC)/C(C)=C(\C=C\c1cccc2ccccc12)OC | Weak activity |
| CO\C=C(C(=O)OC)/C(C)=C(\C=C\c1ccc(OC)c(OC)c1)OC | Weak activity |
| CO\C=C(C(=O)OC)/C(C)=C(\C=C\c1ccc2c(c1)OCO2)OC | Weak activity |

System: Penicillium citrinum
Assay: Compound was tested for the antifungal activity against Penicillium citrinum (R-3703) at a concentration of 10 ug/disk; zone of inhibition was measured after 48 h incubation.
Assay type: functional
Details: not given

| Molecule | Diameter of inhibition zone [mm] |
| --- | --- |
| CO\C=C(C(=O)OC)/C(C)=C(\C=C\c1cccc2ccccc12)OC | 17 |
| CO\C=C(C(=O)OC)/C(C)=C(\C=C\c1ccc(OC)c(OC)c1)OC | 22 |
| CO\C=C(C(=O)OC)/C(C)=C(\C=C\c1ccc2c(c1)OCO2)OC | 18 |
| CO\C=C(C(=O)OC)/C(C)=C(\C=C\c1cccc(OC)c1)OC | 25 |

System: Penicillium citrinum
Assay: Compound was tested for the antifungal activity against Penicillium citrinum (R-3703) at a concentration of 1 ug/disk; zone of inhibition was measured after 48 hr incubation.
Assay type: functional
Details: not given

| Molecule | Diameter of inhibition zone [mm] |
| --- | --- |
| CO\C=C(C(=O)OC)/C(C)=C(\C=C\c1cccc2ccccc12)OC | 12 |
| CO\C=C(C(=O)OC)/C(C)=C(\C=C\c1ccc(OC)c(OC)c1)OC | 13 |
| CO\C=C(C(=O)OC)/C(C)=C(\C=C\c1ccc2c(c1)OCO2)OC | 10 |
| CO\C=C(C(=O)OC)/C(C)=C(\C=C\c1cccc(OC)c1)OC | 19 |

System: Penicillium citrinum
Assay: Compound was tested for the antifungal activity against Penicillium citrinum (R-3703) at a concentration of 0.1 ug/disk; zone of inhibition was measured after 48 hr incubation.
Assay type: functional
Details: not given

| Molecule | Diameter of inhibition zone [mm] |
| --- | --- |
| CO\C=C(C(=O)OC)/C(C)=C(\C=C\c1cccc(OC)c1)OC | 8 |

System: Saccharomyces cerevisiae
Assay: Compound was tested for the antifungal activity against Saccharomyces cerevisiae (IAM4861) at a concentration of 0.1 ug/disk; zone of inhibition was measured after 48 hr incubation; incomplete inhibition observed
Assay type: functional
Details: not given

| Molecule | Diameter of inhibition zone [mm] |
| --- | --- |
| CO\C=C(C(=O)OC)/C(C)=C(\C=C\c1ccc(OC)c(OC)c1)OC | 20 |
| CO\C=C(C(=O)OC)/C(C)=C(\C=C\c1ccc2c(c1)OCO2)OC | 8 |
| CO\C=C(C(=O)OC)/C(C)=C(\C=C\c1cccc(OC)c1)OC | 16 |

System: Saccharomyces cerevisiae
Assay: Compound was tested for the antifungal activity against Saccharomyces cerevisiae (IAM4861) at a concentration of 10 ug/disk; zone of inhibition was measured after 48 hr incubation.
Assay type: functional
Details: not given

| Molecule | Diameter of inhibition zone [mm] |
| --- | --- |
| CO\C=C(C(=O)OC)/C(C)=C(\C=C\c1cccc2ccccc12)OC | 22 |

System: Saccharomyces cerevisiae
Assay: Compound was tested for the antifungal activity against Saccharomyces cerevisiae (IAM4861) at a concentration of 0.1 ug/disk; zone of inhibition was measured after 48 hr incubation.
Assay type: functional
Details: not given

| Molecule | Diameter of inhibition zone [mm] |
| --- | --- |
| CO\C=C(C(=O)OC)/C(C)=C(\C=C\c1cccc2ccccc12)OC | 5 |

System: Saccharomyces cerevisiae
Assay: Compound was tested for the antifungal activity against Saccharomyces cerevisiae (IAM4861) at a concentration of 10 ug/disk; zone of inhibition was measured after 48 hr incubation; incomplete inhibition observed
Assay type: functional
Details: not given

| Molecule | Diameter of inhibition zone [mm] |
| --- | --- |
| CO\C=C(C(=O)OC)/C(C)=C(\C=C\c1ccc(OC)c(OC)c1)OC | 43 |
| CO\C=C(C(=O)OC)/C(C)=C(\C=C\c1ccc2c(c1)OCO2)OC | 42 |
| CO\C=C(C(=O)OC)/C(C)=C(\C=C\c1cccc(OC)c1)OC | 35 |

System: Saccharomyces cerevisiae
Assay: Compound was tested for the antifungal activity against Saccharomyces cerevisiae (IAM4861) at a concentration of 1 ug/disk; zone of inhibition was measured after 48 hr incubation; incomplete inhibition observed
Assay type: functional
Details: not given

| Molecule | Diameter of inhibition zone [mm] |
| --- | --- |
| CO\C=C(C(=O)OC)/C(C)=C(\C=C\c1ccc(OC)c(OC)c1)OC | 38 |
| CO\C=C(C(=O)OC)/C(C)=C(\C=C\c1ccc2c(c1)OCO2)OC | 36 |
| CO\C=C(C(=O)OC)/C(C)=C(\C=C\c1cccc(OC)c1)OC | 29 |

System: Saccharomyces cerevisiae
Assay: Compound was tested for the antifungal activity against Saccharomyces cerevisiae (IAM4861) at a dose of 1 ug/disk; the diameter of each inhibition zone was measured after 48 hr incubation.
Assay type: functional
Details: not given

| Molecule | Diameter of inhibition zone [mm] |
| --- | --- |
| CO\C=C(C(=O)OC)/C(C)=C(\C=C\c1cccc2ccccc12)OC | 18 |
